Legend:
VE-cadherin = assay: Analysis of adherens junction (VE-cadherin staining); type: cell-based, human; settings: HRECs, 10 ng/mL VEGF 90 min with 20 μM midazolam, 5 μM BAPTA-AM, 1 mM NAC, 0.5 μM Trolox, 50 μM cystamine or 20 μM MDC (FIGS. 5, 6)
Procedure: Purchased from Applied Cell Biology Research Institute (Cell Systems, Kirkland, Wash.), human retinal endothelial cells (HRECs) were cultured in an M19 medium, containing 20% FBS, 3 ng/mL bFGF, 5 U/mL heparin, 100 U/mL penicillin and […], in a 2% gelatin-coated plate.
Before the following Test Examples 2 to 7, the HRECs were cultured for 6 hr in a medium containing 1% FBS and an antibiotic agent, thus preparing HRECs of Test Example 1.
The HRECs of Test Example 1 were subjected to the respective treatments below and cultured for 30 min. Here, treatment with 10 ng/mL VEGF was performed for 90 min. Thereafter, the HRECs were treated with 1 mM 5-(biotinamido)pentylamine, incubated for 1 hr, fixed with 3.7% formaldehyde, treated with 0.2% triton X-100, treated with a blocking solution containing 138 mM NaCl, 0.1% Tween 20 and 2% BSA dissolved in a 20 mM Tris (pH 7.6) buffer, incubated for 30 min, incubated with a monoclonal VE-cadherin antibody (1:200; Santa Cruz Biotechnology) for 12 hr or more (overnight), incubated with a FITC-conjugated goat anti-mouse antibody (1:200; Sigma-Aldrich), and then measured using confocal microscopy. Some (the following i), iii), iv), vi), ix)) of the results are shown in FIG. 5 and the VE-cadherin concentrations in the portions represented by the dotted lines in FIG. 5 are shown in FIG. 6. With reference to FIG. 6, 10 randomly selected cells were measured to determine the fluorescence intensity of single cells and thus quantify VE-cadherin.
VE-cadherin, which is a protein that mediates adherens junction, was analyzed to evaluate adherens junction.

[1] = tested on: human retinal endothelial cells (HRECs); assay: Identification of receptor of midazolam through ROS concentration analysis; type: cell-based
Procedure: With reference to FIG. 10A, the HRECs of Test Example 1 were subjected to the respective treatments below, cultured for 10 min, treated with 10 μM H2DCFDA, stained for 10 min in a phenol-red-free low-serum medium, and measured using confocal microscopy to thus determine the fluorescence intensity of single cells.
(§1) As will be described below, flumazenil was used as a GABAA receptor antagonist and PK11195 was used as a TSOP receptor antagonist.
With reference to FIG. 10B, the HRECs of Test Example 1 were treated with 0 μM, 0.01 μM, 0.1 μM, 1 μM, 10 μM, 20 μM, and 50 μM flumazenil and 0 μM, 0.01 μM, 0.1 μM, 1 μM, 3 μM, 10 μM, and 30 μM PK11195, cultured for 1 hr, treated with 20 μM midazolam, cultured for 30 min, treated with 10 ng/ml VEGF, incubated for 10 min, treated with 10 μM H2DCFDA, stained for 10 min in a phenol-red-free low-serum medium, and then measured using confocal microscopy to thus determine the fluorescence intensity of single cells.

TGase = assay: Identification of receptor of midazolam through TGase activity analysis; type: cell-based, human; settings: HRECs
Procedure: With reference to FIG. 11A, the HRECs of Test Example 1 were subjected to the respective treatments below, cultured for 2 hr, treated with 1 mM 5-(biotinamido)pentylamine, incubated for 1 hr, fixed with 3.7% formaldehyde, treated with 0.2% triton X-100, treated with a blocking solution containing 138 mM NaCl, 0.1% Tween 20 and 2% BSA dissolved in a 20 mM Tris (pH 7.6) buffer, incubated for 30 min, incubated with FITC-conjugated streptavidin (1:200, v/v) for 1 hr, and then measured using confocal microscopy to thus determine the fluorescence intensity of single cells.
as §1
With reference to FIG. 11B, the HRECs of Test Example 1 were treated with 0 μM, 0.01 μM, 0.1 μM, 1 μM, 10 μM, 20 μM, and 50 μM flumazenil and 0 μM, 0.01 μM, 0.1 μM, 1 μM, 3 μM, 10 μM, and 30 μM PK11195, cultured for 1 hr, treated with 20 μM midazolam, cultured for 30 min, treated with 10 ng/ml VEGF, incubated for 10 min, treated with 1 mM 5-(biotinamido)pentylamine, incubated for 1 hr, fixed with 3.7% formaldehyde, treated with 0.2% triton X-100, treated with a blocking solution containing 138 mM NaCl, 0.1% Tween 20 and 2% BSA dissolved in a 20 mM Tris (pH 7.6) buffer, incubated for 30 min, incubated with FITC-conjugated streptavidin (1:200, v/v) for 1 hr, and then measured using confocal microscopy to thus determine the fluorescence intensity of single cells.

retinas of diabetic mice = assay: Analysis of ROS concentration in retinas of diabetic mouse model (DHE); type: in vivo, C57BL/6 mice; settings: intravitreal 2 μL of 2 mM midazolam, 2 μM Trolox or 500 mM NAC (FIGS. 12, 13)
Procedure: 6-week-old male C57BL/6 mice (DBL, EumSeong, Korea) were administered with streptozotocin (Sigma-Aldrich) dissolved in a 100 mM citrate buffer (pH 4.5) through intraperitoneal injection in an amount of 150 mg each per kg of mouse weight to give diabetic mouse models. In the diabetic mouse models, the blood glucose level was 19 mM or more when not fasting, and polyuria and diabetes, considered signs of diabetes, were observed. […]
Normal mice (Normal), midazolam-administered normal mice (Midazolam), diabetic mice (Diabetic), midazolam-administered diabetic mice (Diabetic+Midazolam), Trolox-administered diabetic mice (Diabetic+Trolox) and NAC-administered diabetic mice (Diabetic+NAC) were subjected to cervical dislocation and the eyeballs were extracted therefrom and rapidly frozen with an OCT compound (Sakura Finetek, Torrance, Calif., USA). Using a microtome-cryostat (Leica Biosystems, Wetzlar, Germany), 10 μm-thick non-fixed cryosections were prepared, treated with a solution of 5 μM dihydroethidium (DHE, Invitrogen-Molecular Probes) in PBS, stained for 30 min, and measured using confocal microscopy. The results of ROS concentrations quantitatively analyzed using the fluorescence intensity of the cryosections are shown in FIGS. 12 and 13.

Structure (SMILES): Cc1ncc2n1-c1ccc(Cl)cc1C(c1ccccc1F)=NC2 [midazolam]
- VE-cadherin concentration / adherens junction disruption due to VEGF (VE-cadherin): exhibited the effect of preventing the adherens junction disruption due to VEGF
- ROS concentration (VEGF-induced) compared to control ([1]; 20 μM midazolam 10 min then 10 ng/ml VEGF, no washing (FIG. 10A)): no significant ROS concentration increase was observed
- ROS concentration (VEGF-induced, after washing) ([1]; 20 μM midazolam 30 min, washing with serum-free medium, then 10 ng/ml VEGF (FIG. 10A)): ROS concentration was increased
- TGase activity (VEGF-induced) compared to control (TGase; 20 μM midazolam 10 min then 10 ng/ml VEGF, no washing (FIG. 11A)): no significant TGase activity increase was observed
- TGase activity (VEGF-induced, after washing) (TGase; 20 μM midazolam 30 min, washing with serum-free medium, then 10 ng/ml VEGF (FIG. 11A)): TGase activity was increased
- ROS concentration in retina compared to normal mice (retinas of diabetic mice): an increase in ROS concentration was suppressed
